1 molecule from patent US11596626B2, “Compound for use against pathogenic Neisseria and Haemophilus species and Moraxella catarrhalis” (priority 2017, dated 2023) can be followed below.

“Also recorded” adds a separate entry of the source.

The test system of series [1] is Neisseria gonorrhoeae strain MS11. The experiment in a line: Growth curves in liquid culture (optical density) vs DMSO control. It counts as cell-based. As to the method:
(§1) Growth experiments with NQNO were conducted against Neisseria gonorrhoeae strain MS11 (Edwards, M., et al., Antigenic analysis of gonococcal pili using monoclonal antibodies, J Exp Med, 1984. 160(6): p. 1782-91) and a multidrug-resistant N. gonorrhoeae isolate from Slovenia (Unemo M, Golparian O, Potočnik M, Jeverica S. Treatment failure of pharyngeal gonorrhoea with internationally recommended first-line ceftriaxone verified in Slovenia, September 2011. Euro Surveill. 2012; 17(25):pii=20200), Neisseria macacae, and Lactobacillus brevis. The bacteria were inoculated in GC (Difco™ GC medium Ref. 228950, BD Becton Dickinson) and PPM broth (15 g/L Proteon Pepton, 1 g/L soluble starch, 5 g/L NaCl, 4 g/L KH2PO4, 1 g/L K2HPO4, pH 7.5) (Neisseriae) or TSB (BBL™ Trypticase Soy Broth Ref 211768, BD Becton Dickinson) (Lactobacillus) supplemented with solvent (DMSO) or the indicated concentrations of NQNO (5-50 04) and their growth at 37° C. was monitored over the course of 10 h by optical density readings in 30 minute intervals.
(§2) Neisseria strains were cultured in PPM medium (15 g/l Proteon Pepton, 1 g/l soluble starch, 5 g/l NaCl, 4 g/l KH2PO4, 1 g/l K2HPO4, pH 7.5) for liquid culture and on GC plates (BD Difco™ GC Medium Base) supplemented with 1% vitamin mix (100 g/l glucose, 10 WI glutamine, 26 g/l L-cystein, 100 mg/l carboxylase, 250 mg/l NAD, 500 μl Fe(NO3)3, 150 mg/l arginine, 3 mg/l thiamine-HCl, 10 mg/l vitamine B12, 13 mg/I p-amino benzoic acid, 1.1 g/l L-cystin, 1 g/l adenine; 500 mg/l uracil, 30 mg/I guanine). […]
(§3) Before every experiment, bacteria were pre-cultured in 5 ml liquid medium for at least 2 hours then harvested and resuspended in PBS (phosphate buffered saline). Optical density (OD) was determined and a volume equal to an OD of 0.2 was inoculated into 5 ml of the respective medium. […] Samples were incubated for either 10.5 hours, until they reached stationary phase (three measured values in stationary phase) or until they reached an OD of 2.5. Optical density was determined every 0.5 h.

For series [2], the system named is Neisseria macacae. The description is as above. To be noted: 5-50 μM, FIG. 3. Format: cell-based. As for the experimental part: as §1, §2, §3
The subject of series [3] is Lactobacillus brevis. The description is as above. Format: cell-based. The note with it: 5-50 μM, FIG. 4. As to the method: as §1, with “intervals. […]” for “intervals.”
Before every experiment, bacteria were pre-cultured in 5 ml liquid medium for at least 2 hours then harvested and resuspended in PBS (phosphate buffered saline). Optical density (OD) was determined and a volume equal to an OD of 0.2 was inoculated into 5 ml of the respective medium. […] Optical density was determined every 0.5 h.

Series [4] concerns MS74 cells. The experiment in a line: Microscopic evaluation of treated cells. Format: cell-based, human. The note with it: up to 50 μM, 2 days, FIG. 14. The source says:
FIG. 14: Microscopic evaluation of MS74 cells treated for two days with the indicated concentrations of NQNO compared to DMSO control.

Series [5] relates to N. gonorrhoeae. The experiment in a line: Immunofluorescence staining of upper vaginal tract sections of infected CEAtg mice. It counts as in vivo, Neisseria gonorrhoeae. The note with it: 20 μl of 50 μM 2 h after infection, tissue 20 h later, FIGS. 8 and 9. As to the method:
6 to 8 week old, female CEA-transgenic mice were infected with N. gonorrhoeae. 2 h after infection, the animals were treated with 20 μl buffer containing solvent (DMSO) or 50 μM NQNO (Compound represented by the Formula (5)). 20 h later, the genital tract was excised and cryosections were stained for cell nuclei (Hoechst; blue), human CEA (red) and N. gonorrhoeae (gonococci, green) (FIG. 8).
Additional cryosections from the same samples were stained for cell nuclei (Hoechst; blue), human collagen (red) and N. gonorrhoeae (gonococci, green) (FIG. 9).
In particular, in the above experiments the genital tract of infected mice was excised and immediately fixed with 4% paraformaldehyde for at least 24 h. The fixed tissue was sequentially transferred to 10% sucrose, 0.05% cacodylic acid for 1 h at 4° C., to 20% sucrose for 1 h at 4° C., and then into 30% sucrose at 4° C. overnight. Organs were mounted in the embedding medium (Cryo-M-Bed; Bright Instrument, Huntingdon, UK) and frozen at −20° C. 10 μm thick sections were cut at −20° C. using a cryostat (Vacutom HM500, Microm, Germany). Sections were stained with a mouse monoclonal antibody against collagen type IV (clone M3F7; dilution 1:200) together with a polyclonal rabbit antibody against N. gonorrhoeae (dilution 1:100). […]

Series [6] in a line: Stability in deuterated methanol by proton NMR. To be noted: 25 mM in deuterated methanol, 25° C. or 37° C., 28 days. Format: physicochemical. As to the method: Two samples of NQNO were dissolved in deuterated methanol (CD3OD) to reach a final concentration of 25 mM. Samples were kept at 25° C. or 37° C. for 28 days and proton NMR spectra were measured with the same acquisition parameters every week and the spectra compared with the ones from day 0.

As for `CCCCCCCCCc1cc(=O)c2ccccc2n1O` [NQNO, 1-Hydroxy-2-nonylquinolin-4(1H)-one], the “Concentration leading to complete abrogation of gonococcal growth in vitro” value in series [1] (N. gonorrhoeae MS11, 37° C., growth monitored over 10 h, FIG. 1) is at most 5 µM; in series [1] (N. gonorrhoeae MS11, mass concentration given for 5 μM), below 1.4 µg/mL. Further, the Effect on growth entry in series [2] and in series [3] was “did not compromise the growth” throughout. For the same molecule, the “Morphology and overall phenotype of cells” value in series [4] is given as “did not change”. Besides, the “Gonococci on the mucosal surface (fluorescence microscopy)” value in series [5] is recorded as “hardly any gonococci could be detected; also recorded: no gonococci could be detected”. For the same molecule, the Stability in solvent result in series [6] is “stable at 37 °C in deuterated methanol for at least one month”.
